From patent US20070218460A1, “Method of Estimating Toxicity of Drug” (TAKEDA PHARMACEUTICAL COMPANY LIMITED, priority 2003, published 2007)

What was measured:
HepG2 cells [1] = assay: Highest concentration at which cells were viable after 72 hr exposure; format: cell-based, human
slc2a3 = assay: Real-time quantitative PCR of PLsis marker gene expression; format: cell-based, human; conditions: HepG2 cells, 24 hr exposure, relative value, control group = 1.0, GAPDH internal standard, n=3
Experimental: (§1) Using RNeasy Mini Kit (QIAGEN), total RNA was purified from the cells, and cDNA was synthesized in a 100 μL system using TaqMan Reverse Transcription Reagents (PE Applied Biosystems).
(§2) As the primer for glyceraldehyde-3-phosphoric acid dehydrogenase (GAPDH) and VIC labeled probe, those attached to TaqMan GAPDH Control Reagents (PE Applied Biosystems) were used.
(§3) Using 100 μL of the reaction mixture containing 5 μL of cDNA (1×TaqMan Universal PCR Master Mix (PE Applied Biosystems), 200 nM forward primer, 200 nM reverse primer and 200 nM TaqMan probe), 40 cycles of (1 cycle=95° C., 15 sec; 60° C., 1 min) PCR were performed. PCR and fluorescence detection were performed using ABI PRISM Sequence Detector 7000 (PE Applied Biosystems). As the internal standard, GAPDH was used to amend the measurement values. For the determination of significant difference, t-test was used (n=3).
(§4) For each test compound, the expression variation rate of 12 genes each relative to the control group was determined.

tagln = assay: as above; format: cell-based, human; conditions: HepG2 cells, 24 hr exposure, relative value, control group = 1.0, GAPDH internal standard, n=3
Experimental: as §1, §2, §3, §4

hpn = assay: as above; format: cell-based, human; conditions: HepG2 cells, 24 hr exposure, relative value, control group = 1.0, GAPDH internal standard, n=3
Experimental: as §1, §2, §3, §4

kiaa1001 = assay: as above; format: cell-based, human; conditions: HepG2 cells, 24 hr exposure, relative value, control group = 1.0, GAPDH internal standard, n=3
Experimental: as §1, §2, §3, §4

asah1 = assay: as above; format: cell-based, human; conditions: HepG2 cells, 24 hr exposure, relative value, control group = 1.0, GAPDH internal standard, n=3
Experimental: as §1, §2, §3, §4

depp = assay: as above; format: cell-based, human; conditions: HepG2 cells, 24 hr exposure, relative value, control group = 1.0, GAPDH internal standard, n=3
Experimental: as §1, §2, §3, §4

mgc4171 = assay: as above; format: cell-based, human; conditions: HepG2 cells, 24 hr exposure, relative value, control group = 1.0, GAPDH internal standard, n=3
Experimental: as §1, §2, §3, §4

fabp1 = assay: as above; format: cell-based, human; conditions: HepG2 cells, 24 hr exposure, relative value, control group = 1.0, GAPDH internal standard, n=3
Experimental: as §1, §2, §3, §4

serpina3 = assay: as above; format: cell-based, human; conditions: HepG2 cells, 24 hr exposure, relative value, control group = 1.0, GAPDH internal standard, n=3
Experimental: as §1, §2, §3, §4

flj22362 = assay: as above; format: cell-based, human; conditions: HepG2 cells, 24 hr exposure, relative value, control group = 1.0, GAPDH internal standard, n=3
Experimental: as §1, §2, §3, §4

nr0b2 = assay: as above; format: cell-based, human; conditions: HepG2 cells, 24 hr exposure, relative value, control group = 1.0, GAPDH internal standard, n=3
Experimental: as §1, §2, §3, §4

lss = assay: as above; format: cell-based, human; conditions: HepG2 cells, 24 hr exposure, relative value, control group = 1.0, GAPDH internal standard, n=3
Experimental: as §1, §2, §3, §4

HepG2 cells [2] = assay: Electron-microscopic examination of PLsis induction potential (myelin-like structure)
Description: Using 30 kinds of the following commercially available drugs as test compounds, the level of PLsis induction potential was examined with the emergence of an intracellular myelin-like structure or a structure having a high electron density, which is an early image thereof, as an index by electronmicroscopic observation.
HepG2 cells (purchased from ATCC) were exposed to the test compound by a conventional method. HepG2 cells used were of the cell growth phase. The attached HepG2 cells were washed twice with. Dulbecco's phosphate buffered saline (calcium and magnesium salt free; PBS(−))(Dainippon Pharmaceutical Co., Ltd.) containing 0.05 w/v % EDTA, detached with a cell dissociation solution of 0.25 vol % trypsin-1 mmol/L EDTA (Gibco BRL) diluted 2-fold with PBS(−), centrifuged to remove the supernatant, and adjusted to a concentration of 2×10^5 cells/250 μL with a culture medium [Dulbecco's modified Eagle medium (DMEM)(Gibco BRL) supplemented with 50 U/mL penicillin (Gibco BRL)-[…] streptomycin (Gibco BRL) and 5 vol % FBS (Bio whittaker)]. DMSO alone or a culture medium containing the above-mentioned test compound in DMSO solution was dispensed to a well by 250 μL, the above-mentioned cell suspension (250 μL) was added, and cultured in a CO2 incubator (7100; Napco) under an atmosphere of 5% CO2—95% air at 37° C.
After culture for 72 hr, the culture medium was removed, and the cells were fixed with 1 w/v % glutaraldehyde solution. After fixing with 2 w/v % osmic acid for 2 hr by a conventional method and dehydrating with an alcohol series, the cells were embedded in a resin (Quetol 812). Ultrathin slices were prepared and, after electron staining, observed with an electron microscope (H-300; Hitachi) and photographed in 3 or more pictures per each sample (magnification ×5000). The processing after post-fixation was performed by Applied Medical Research.

Compound	addition concentration (highest concentration at which cells survived after 72 hr of culture) (HepG2 cells [1]) [µmol/L]	expression variation rate slc2a3 (slc2a3)	expression variation rate tagln (tagln)	expression variation rate hpn (hpn)	expression variation rate kiaa1001 (kiaa1001)	expression variation rate asah1 (asah1)	expression variation rate depp (depp)	expression variation rate mgc4171 (mgc4171)	expression variation rate fabp1 (fabp1)	expression variation rate serpina3 (serpina3)	expression variation rate flj22362 (flj22362)	expression variation rate nr0b2 (nr0b2)	expression variation rate lss (lss)	frequency of appearance of myelin-like structure (HepG2 cells [2])
CN(C)CCCN1c2ccccc2Sc2ccc(Cl)cc21 [chlorpromazine]	8.3	0.43	0.65	1.70	1.90	1.29	2.95	1.74	2.56	1.94	1.70	1.20	1.99	++
CC[C@H]1OC(=O)[C@H](C)[C@@H](O[C@H]2C[C@@](C)(OC)[C@@H](O)[C@H](C)O2)[C@H](C)[C@@H](O[C@@H]2O[C@H](C)C[C@H](N(C)C)[C@H]2O)[C@](C)(OC)C[C@@H](C)C(=O)[C@H](C)[C@@H](O)[C@]1(C)O [clarithromycin]	25	0.86	0.86	0.96	1.48	1.55	0.93	1.18	0.91	1.39	1.00	0.78	0.65	−
CN(C)CCCN1c2ccccc2CCc2ccc(Cl)cc21 [clomipramine]	8.3	0.63	0.78	2.39	3.83	0.82	2.08	1.41	2.36	2.03	1.46	0.98	1.52	+
CC(C)N(CCC(C(N)=O)(c1ccccc1)c1ccccn1)C(C)C (stereo not shown) [disopyramide]	25	1.03	0.99	1.12	0.94	1.85	0.90	1.21	1.02	0.99	0.98	0.63	1.14	−
CC[C@H]1OC(=O)[C@H](C)[C@@H](O[C@H]2C[C@@](C)(OC)[C@@H](O)[C@H](C)O2)[C@H](C)[C@@H](O[C@@H]2O[C@H](C)C[C@H](N(C)C)[C@H]2O)[C@](C)(O)C[C@@H](C)C(=O)[C@H](C)[C@@H](O)[C@]1(C)O [erythromycin]	25	0.73	0.85	0.87	0.78	0.90	0.71	0.86	0.73	0.85	0.92	0.90	0.87	−
O=C(NCC1CCCCN1)c1cc(OCC(F)(F)F)ccc1OCC(F)(F)F (stereo not shown) [flecainide]	25	0.46	0.86	1.26	2.10	2.42	1.73	1.57	1.50	1.60	1.65	1.02	1.22	−
CNCCC(Oc1ccc(C(F)(F)F)cc1)c1ccccc1 (stereo not shown) [fluoxetine]	8.3	0.09	0.20	2.39	1.93	6.55	3.08	1.34	2.80	1.73	2.15	2.70	3.51	+++
O=C(CCCN1CCC(O)(c2ccc(Cl)cc2)CC1)c1ccc(F)cc1 [haloperidol]	8.3	0.44	0.52	1.43	1.32	0.77	1.38	1.24	1.50	1.31	0.93	1.49	1.52	−
